Values quoted from earlier work in US12630801B2, “Stem cell-derived Schwann cells” (MEMORIAL SLOAN-KETTERING CANCER CENTER, priority 2016, dated 2026).

What was measured:
Settings in all cases: Yu et al. 2008; Cuny et al. 2008
ALK6 = ALK6 (Homo sapiens, UniProt O00238)
ALK2 = biological target: T1, ALK2 (Homo sapiens, UniProt Q04771)
T1 sequence (Q04771 21-509): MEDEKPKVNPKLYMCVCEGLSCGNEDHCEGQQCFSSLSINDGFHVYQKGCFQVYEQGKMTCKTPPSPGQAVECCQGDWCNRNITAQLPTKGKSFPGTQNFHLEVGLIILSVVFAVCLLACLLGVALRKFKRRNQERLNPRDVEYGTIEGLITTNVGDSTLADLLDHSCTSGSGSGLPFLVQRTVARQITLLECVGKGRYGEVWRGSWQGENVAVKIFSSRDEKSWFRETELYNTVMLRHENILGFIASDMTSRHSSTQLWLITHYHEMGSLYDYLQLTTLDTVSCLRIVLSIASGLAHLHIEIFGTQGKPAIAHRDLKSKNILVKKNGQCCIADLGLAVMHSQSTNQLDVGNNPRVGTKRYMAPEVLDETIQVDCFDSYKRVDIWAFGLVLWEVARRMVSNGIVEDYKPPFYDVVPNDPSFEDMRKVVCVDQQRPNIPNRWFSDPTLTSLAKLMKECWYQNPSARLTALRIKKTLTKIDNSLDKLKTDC

ALK3 = ALK3 (Homo sapiens, UniProt P36894)
Sequence of ALK3 (P36894 24-532, species assumed): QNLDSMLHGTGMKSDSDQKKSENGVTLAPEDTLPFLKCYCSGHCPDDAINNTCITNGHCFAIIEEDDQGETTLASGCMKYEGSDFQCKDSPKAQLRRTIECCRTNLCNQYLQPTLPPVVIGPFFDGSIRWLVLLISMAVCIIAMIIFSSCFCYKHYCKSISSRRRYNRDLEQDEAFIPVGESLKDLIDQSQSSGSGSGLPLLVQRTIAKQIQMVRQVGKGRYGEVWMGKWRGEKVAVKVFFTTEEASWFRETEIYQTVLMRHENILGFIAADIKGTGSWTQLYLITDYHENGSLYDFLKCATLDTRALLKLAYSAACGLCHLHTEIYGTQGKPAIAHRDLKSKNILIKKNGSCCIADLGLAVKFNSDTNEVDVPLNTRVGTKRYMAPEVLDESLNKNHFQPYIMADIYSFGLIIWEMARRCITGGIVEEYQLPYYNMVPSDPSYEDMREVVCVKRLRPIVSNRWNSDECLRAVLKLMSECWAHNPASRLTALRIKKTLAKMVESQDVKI

Sequence of ALK6 (O00238 14-502): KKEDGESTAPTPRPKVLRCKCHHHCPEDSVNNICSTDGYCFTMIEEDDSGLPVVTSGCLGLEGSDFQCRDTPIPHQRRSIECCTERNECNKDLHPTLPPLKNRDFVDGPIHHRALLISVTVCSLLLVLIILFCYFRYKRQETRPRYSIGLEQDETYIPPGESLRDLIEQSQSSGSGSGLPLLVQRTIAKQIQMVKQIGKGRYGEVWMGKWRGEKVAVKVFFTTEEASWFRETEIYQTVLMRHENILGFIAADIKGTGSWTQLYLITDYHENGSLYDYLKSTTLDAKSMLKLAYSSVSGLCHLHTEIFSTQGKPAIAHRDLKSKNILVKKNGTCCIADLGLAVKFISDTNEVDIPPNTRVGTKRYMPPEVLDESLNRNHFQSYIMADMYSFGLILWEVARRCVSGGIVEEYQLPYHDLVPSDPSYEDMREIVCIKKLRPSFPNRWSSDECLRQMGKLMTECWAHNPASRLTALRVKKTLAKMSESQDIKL

c1ccc2c(-c3cnn4cc(-c5ccc(N6CCNCC6)cc5)cnc34)ccnc2c1 [LDN193189, 4-(6-(4-(piperazin-1-yl)phenyl)pyrazolo[1,5-a]pyrimidin-3-yl)quinoline]
highly potent small-molecule inhibitor: inhibition of ALK6 (ALK6) | inhibition of ALK2 (ALK2) | inhibition of ALK3 (ALK3)
